By solubility (kinetic) is commonly meant solubility judged after dilution from a stock solution rather than from solid.

In brackets after ≈: the same amount, converted by molar mass.

The conditions of this data set: buffer; pH 7.4; 200.0 µM.
Turning to `O=Cc1ccc(-c2cccc([N+](=O)[O-])c2)o1`, the kinetic solubility was 6.3 µg/mL (≈ 29 µM).

In turn, `COc1cc(N2CCCC2)ccc1C=O` yielded a kinetic solubility of 29 µg/mL (≈ 141 µM).

For `Cc1ccc[n+](CC(=O)c2ccc(Cl)cc2)c1.[Cl-]`, the solubility (kinetic) was more than 42.3 µg/mL.

Regarding `O=C(O)c1cncc(C#CCC2CCCCC2)c1`, the kinetic solubility was determined as 34.8 µg/mL (≈ 143 µM).

`Cc1c(C)n(Cc2ccccc2)c2ncnc(NCCCO)c12` showed a kinetic solubility of less than 0.2 µg/mL.

For `CN(C)c1ccc(C(=O)NCc2ccc3c(c2)OCO3)cc1`, the kinetic solubility amounted to 10.2 µg/mL (≈ 34.2 µM).

For `CC1(c2ccccc2Br)NC(=O)N(CC(=O)N2CCc3ccccc3C2)C1=O` (stereo not given), the solubility (kinetic) was 8.1 µg/mL (≈ 18.3 µM).

As for `C=CC[n+]1cccc(-c2cc3ccc(C)cc3[nH]2)c1.[Br-]`, the kinetic solubility was more than 49.4 µg/mL.

For the compound `COc1ccc(C)cc1NC(=O)NCc1ccco1`, the solubility (kinetic) was 11 µg/mL (≈ 42.3 µM).

The compound `CSc1sccc1/C=C(/C#N)C(=O)c1ccco1` yielded a kinetic solubility of 22.6 µg/mL (≈ 82.1 µM).

Consider `Cc1ccc(C)c(S(=O)(=O)Nc2ccc3[nH]c(=O)[nH]c3c2)c1`, for which the kinetic solubility came to 10.4 µg/mL (≈ 32.8 µM).

With `O=C(O)C1CCN(C(=O)Cc2ccccc2)CC1`, the solubility (kinetic) is more than 37.1 µg/mL.

Consider `Cc1nc2ccccc2c(=O)n1NC(=O)c1ccccc1F`, for which the solubility (kinetic) was more than 44.6 µg/mL.

In turn, `Cn1c(=NC(=O)COc2ccccc2)sc2ccccc21` came in with a kinetic solubility of 0.8 µg/mL (≈ 2.68 µM).

Compound `Cl.c1ccc2c(c1)CCCC2C1=NCCN1` (stereo not given) showed a kinetic solubility of more than 35.5 µg/mL.

Regarding `O=S1(=O)CCN(Cc2ccc(F)cc2)CC1`, the solubility (kinetic) is more than 36.5 µg/mL.

Regarding `C=CCn1c(O)c(Cc2ccc(OCC)cc2)c(=O)[nH]c1=O`, the kinetic solubility turned out to be 43.7 µg/mL (≈ 145 µM).

`CCc1cccc(C)c1NC(=S)NCC1CCN(c2ccc(OC)cc2)C1` (stereo not given): the solubility (kinetic) was found to be 2.7 µg/mL (≈ 7.04 µM).

With `CCn1c(SCC(=O)NCC2CCCO2)nc2ccccc21` (stereo not given), the solubility (kinetic) was more than 47.9 µg/mL.

With `N#C/C(=C\c1ccc(F)c(Br)c1)C(=O)NC1CC1`, the solubility (kinetic) turned out to be 6.1 µg/mL (≈ 19.7 µM).

As for `Nc1cc(=O)[nH]c(SCC(=O)Nc2ccc([N+](=O)[O-])cc2)n1`, the solubility (kinetic) is more than 48.2 µg/mL.

Turning to `O=C(O)CSc1nc2ccc(C(=O)c3ccccc3)cc2[nH]1`, the kinetic solubility was determined as 44.4 µg/mL (≈ 142 µM).

Take `CCC1CN(C(=O)NCc2ccc(F)cc2)c2cc(Cl)ccc2O1` (stereo not given): the kinetic solubility was found to be 1.3 µg/mL (≈ 3.73 µM).

As for `CCn1cc(CCC(=O)O)c(C)n1`, the solubility (kinetic) is more than 27.3 µg/mL.

In turn, `CC(=O)Nc1ccc(C(=O)NCC2CCCCC2)cc1` returned a solubility (kinetic) of 36.4 µg/mL (≈ 133 µM).

The compound `CCS(=O)(=O)N1CCC(C(=O)Oc2ccccc2OC)CC1` returned a kinetic solubility of more than 49.1 µg/mL.

On to `CC(C)N1CC(C(=O)Nc2ccc(Cl)c([N+](=O)[O-])c2)CC1=O` (stereo not given), for which the solubility (kinetic) is 45.4 µg/mL (≈ 139 µM).

In turn, `CN(Cc1ccccc1F)c1ncnc2sccc12` showed a solubility (kinetic) of 33.7 µg/mL (≈ 123 µM).

Compound `COc1cc(C(=O)O)ccc1OCc1ccncc1` came in with a solubility (kinetic) of more than 38.9 µg/mL.

In turn, `CCOC(=O)C1CCN(C(=O)COc2ccc(C(=O)c3ccccc3)cc2)CC1` registered a kinetic solubility of 36.6 µg/mL (≈ 92.6 µM).

`Cc1c(O)c2ccccc2n(-c2ccccc2)c1=O`: the kinetic solubility is more than 37.7 µg/mL.

As for `CC(C)(C)c1ccccc1NC(=O)c1cc(-c2ccncc2)nc2ccccc12`, the solubility (kinetic) was found to be 10.8 µg/mL (≈ 28.3 µM).

In turn, `O=C1CN(C(=O)c2ccc(F)cc2)c2ccccc2N1` had a solubility (kinetic) of more than 40.5 µg/mL.

`COC(=O)c1cccc(NC(=S)Nc2ccccc2Cl)c1` yielded a kinetic solubility of 41.4 µg/mL (≈ 129 µM).

`CN(CC1CCCN(CCc2ccc(F)cc2)C1)C(=O)CCC(F)(F)F` (stereo not given) gave a kinetic solubility of 48.5 µg/mL (≈ 130 µM).

`O=C(Nc1cccc(S(=O)(=O)NC2=NCCC2)c1)c1ccccc1`: the solubility (kinetic) is more than 51.5 µg/mL.

In turn, `Nc1nc(NCC2CCCO2)nc(Nc2cccc(F)c2)c1[N+](=O)[O-]` (stereo not given) came in with a kinetic solubility of less than 0.1 µg/mL.

In the case of `COc1ccc(C(=O)Nc2c(C)cc(C)cc2C)cc1OC`, the solubility (kinetic) was more than 44.9 µg/mL.

With `CCc1ccc(S(=O)(=O)Nc2ccc(Br)cn2)cc1`, the kinetic solubility came out at 18.1 µg/mL (≈ 53 µM).

For `CC(NC(=O)COC(=O)c1cc(Cl)nc(Cl)c1)c1ccccc1` (stereo not given), the kinetic solubility was more than 53 µg/mL.

For `Cc1cc(C(=O)Nc2nccs2)c2cc(F)ccc2n1`, the kinetic solubility turned out to be 3.1 µg/mL (≈ 10.8 µM).

Compound `O=[N+]([O-])c1cccc(S(=O)(=O)NC2CC3CCC2C3)c1` (stereo not given) had a kinetic solubility of 42.8 µg/mL (≈ 144 µM).

In the case of `CC1CCN(S(=O)(=O)c2cccc(S(=O)(=O)N3CCCC3)c2)CC1`, the solubility (kinetic) came to 28.1 µg/mL (≈ 75.4 µM).

As to `Cn1c(-c2ccccc2)c(C=O)c2ccccc21`, the solubility (kinetic) came out at 19.5 µg/mL (≈ 82.9 µM).

Consider `CC(=O)c1sc(C(C)(C)C)cc1NC(=O)/C=C/C(=O)O`, for which the kinetic solubility was 40 µg/mL (≈ 135 µM).

Consider `O=S1(=O)c2cccc3cccc(c23)N1CCBr`, for which the solubility (kinetic) came to 17.7 µg/mL (≈ 56.7 µM).

Take `O=C(OCc1ccc([N+](=O)[O-])cc1)C1CC(=O)N(Cc2ccccc2)C1` (stereo not given): the solubility (kinetic) was more than 53.2 µg/mL.

In turn, `Cc1cccc(NC(=O)c2ccc(S(=O)(=O)N(C)c3ccccc3)cc2)n1` yielded a kinetic solubility of 11.6 µg/mL (≈ 30.4 µM).

Compound `O=[N+]([O-])c1ccc(NS(=O)(=O)N2CCOCC2)cc1` had a solubility (kinetic) of more than 43.1 µg/mL.

`CCN(CC)Cc1ccccn1.Cl` showed a solubility (kinetic) of 29.2 µg/mL.

The compound `C[C@]12CS(=O)(=O)C[C@H]1SC(=S)N2c1ccccc1` showed a solubility (kinetic) of more than 44.9 µg/mL.

The compound `COc1ccc(S(=O)(=O)N2CCOCC2)cc1NC(=O)CN1C(=O)CN(C)C1=O` came in with a solubility (kinetic) of more than 64 µg/mL.

`Cn1c(SCc2c(F)cccc2Cl)nc2c(c1=O)SCC2`: the kinetic solubility came out at 6.1 µg/mL (≈ 17.8 µM).

`CCOc1ccc(C2NC(=O)NC(C)=C2[N+](=O)[O-])cc1OC` (stereo not given) had a solubility (kinetic) of 45.5 µg/mL (≈ 148 µM).

Regarding `Cc1sc2ncnc(NCC(O)c3ccccc3)c2c1C` (stereo not given), the kinetic solubility is 6.6 µg/mL (≈ 22 µM).

Consider `COc1cc(C(=O)NCCCCc2ccccc2)cc(OC)c1OC`, for which the kinetic solubility is 4.5 µg/mL (≈ 13.1 µM).

For the compound `CCn1c(C)nnc1SCC(=O)Nc1ccc(C(C)=O)cc1`, the kinetic solubility was more than 47.8 µg/mL.

Regarding `COc1cccc(N2CCN(c3ccc(S(=O)(=O)N4CCN(C)CC4)cc3[N+](=O)[O-])CC2)c1`, the kinetic solubility stood at 11.9 µg/mL (≈ 25 µM).

`CCOc1ccc(/C=C/c2nc(C#N)c(NCCCN(C)C)o2)cc1` displayed a kinetic solubility of more than 51.1 µg/mL.

`CCOc1cc2c(cc1/C=C1/NC(=O)N(CC(=O)OC)C1=O)OCO2` came in with a solubility (kinetic) of 2.9 µg/mL (≈ 8.33 µM).

For the compound `CCc1ccc(NC(=S)N2CCCC(C(F)(F)F)C2)cc1` (stereo not given), the kinetic solubility amounted to 6.1 µg/mL (≈ 19.3 µM).

Regarding `CCc1cccc2c(C(=O)C(NCCOC)c3ccccc3)c[nH]c12` (stereo not given), the solubility (kinetic) is more than 50.5 µg/mL.

As for `CN(C(=O)c1cccc(NC(=O)Cc2ccccc2)c1)c1ccccc1`, the solubility (kinetic) was more than 51.7 µg/mL.

`Cc1ccc(NC(=O)N2CCCCCC2)c(C)c1`: the kinetic solubility is more than 37 µg/mL.

Consider `CCN(CC)c1ccc(NC(=S)Nc2ccc(F)cc2)cc1`, for which the kinetic solubility came to 9 µg/mL (≈ 28.4 µM).

`CCN(CC)c1ncc(C#N)c(N)n1` registered a solubility (kinetic) of 25.6 µg/mL (≈ 134 µM).

Compound `Cc1ccc(NC(=O)CNC(=O)c2ccco2)cc1` came in with a kinetic solubility of more than 38.7 µg/mL.

In turn, `COc1cccc(CNc2ccc(C(=O)O)cc2)c1OCc1ccccc1` registered a solubility (kinetic) of more than 54.5 µg/mL.

Regarding `Cc1onc(-c2ccccc2)c1C(=O)NC(C)c1ccccc1` (stereo not given), the solubility (kinetic) was 4.9 µg/mL (≈ 16 µM).

As for `COCCNc1c2c(nc3ccccc13)CCC2.Cl`, the solubility (kinetic) is more than 41.8 µg/mL.

In turn, `Cc1cc(C)c2c(N)c(C(=O)Nc3ccc(F)cc3)sc2n1` displayed a solubility (kinetic) of 1.1 µg/mL (≈ 3.49 µM).

The compound `NC(=S)Nc1ccc2c(c1)OCO2` came in with a solubility (kinetic) of more than 29.4 µg/mL.

Regarding `Nc1ccc(-c2ccc(N)c(C(=O)O)c2)cc1C(=O)O`, the kinetic solubility was more than 40.8 µg/mL.

`CC1CCCCN1C(=O)CSc1nc(C2CC2)nc2ccccc12` (stereo not given) showed a kinetic solubility of more than 51.2 µg/mL.

`COc1ccc(CNC(C)Cc2cccs2)cc1` (stereo not given) came in with a solubility (kinetic) of 30.4 µg/mL (≈ 116 µM).

Source of the values: PubChem BioAssay AID1996.
